Measured values: the supplement of paper PMC10307832

Columns and labels:
Experiment in all cases: relative viability (nuclei count vs DMSO), 5 days (fraction); higher = more cells survive
SGI-1776 + Pemetrexed = compound: CN1CCC(CNc2ccc3ncc(-c4cccc(OC(F)(F)F)c4)n3n2)CC1 [SGI-1776] + Nc1nc2[nH]cc(CCc3ccc(C(=O)N[C@@H](CCC(=O)O)C(=O)O)cc3)c2c(=O)[nH]1 [Pemetrexed] (partner 0.2 µM)
Outline: (§1)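 Lung cancer cell lines in 1536-well plates got either a single drug or a fixed anchor-drug dose together with five library-drug doses (not always all listed) in √10 steps, by pin tool, on the day after seeding. Nuclei were counted after 5 days, and relative viability is the treated-to-vehicle ratio of nuclei counts. Values are medians of duplicate plates.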

Entinostat + Bortezomib = compound: Nc1ccccc1NC(=O)c1ccc(CNC(=O)OCc2cccnc2)cc1 [Entinostat] + CC(C)C[C@H](NC(=O)[C@H](Cc1ccccc1)NC(=O)c1cnccn1)B(O)O [Bortezomib] (partner 0.002 µM)
Outline: as §1

Entinostat + Lapatinib = compound: Nc1ccccc1NC(=O)c1ccc(CNC(=O)OCc2cccnc2)cc1 [Entinostat] + CS(=O)(=O)CCNCc1ccc(-c2ccc3ncnc(Nc4ccc(OCc5cccc(F)c5)c(Cl)c4)c3c2)o1 [Lapatinib] (partner 2 µM)
Outline: as §1

Entinostat + Tozasertib = compound: Nc1ccccc1NC(=O)c1ccc(CNC(=O)OCc2cccnc2)cc1 [Entinostat] + Cc1cc(Nc2cc(N3CCN(C)CC3)nc(Sc3ccc(NC(=O)C4CC4)cc3)n2)n[nH]1 [Tozasertib] (partner 0.1 µM)
Outline: as §1

Row | Cell Line | relative viability (SGI-1776 + Pemetrexed; first compound 0.08 µM) | relative viability (SGI-1776 + Pemetrexed; first compound 0.8 µM) | relative viability (SGI-1776 + Pemetrexed; first compound 2.53 µM) | relative viability (SGI-1776 + Pemetrexed; first compound 8 µM) | relative viability (Entinostat + Bortezomib; first compound 0.02 µM) | relative viability (Entinostat + Bortezomib; first compound 0.06325 µM) | relative viability (Entinostat + Bortezomib; first compound 0.2 µM) | relative viability (Entinostat + Bortezomib; first compound 0.6325 µM) | relative viability (Entinostat + Bortezomib; first compound 2 µM) | relative viability (Entinostat + Lapatinib; first compound 0.02 µM) | relative viability (Entinostat + Lapatinib; first compound 0.06325 µM) | relative viability (Entinostat + Lapatinib; first compound 0.2 µM) | relative viability (Entinostat + Lapatinib; first compound 0.6325 µM) | relative viability (Entinostat + Lapatinib; first compound 2 µM) | relative viability (Entinostat + Tozasertib; first compound 0.02 µM) | relative viability (Entinostat + Tozasertib; first compound 0.06325 µM) | relative viability (Entinostat + Tozasertib; first compound 0.2 µM) | relative viability (Entinostat + Tozasertib; first compound 0.6325 µM) | relative viability (Entinostat + Tozasertib; first compound 2 µM)
1 | NCI-H520 | 0.784 | 0.692 | 0.553 | 0.348 | 0.602 | 0.667 | 0.558 | 0.195 | 0.161 | 1.03 | 0.946 | 0.864 | 0.776 | 0.301 | 0.47 | 0.441 | 0.38 | 0.331 | 0.325
2 | LOU-NH91 | 0.371 | 0.371 | 0.405 | 0.446 | 0.496 | 0.52 | 0.534 | 0.545 | 0.512 | 0.781 | 0.848 | 0.769 | 0.765 | 0.561 | 0.736 | 0.671 | 0.616 | 0.523 | 0.344
3 | COR-L23 | 0.212 | 0.188 | 0.2 | 0.18 | 0.994 | 0.881 | 0.964 | 0.423 | 0.147 | 0.967 | 0.995 | 0.905 | 0.579 | 0.176 | 0.159 | 0.19 | 0.198 | 0.0831 | 0.0903
4 | NCI-H1437 | 0.3 | 0.328 | 0.28 | 0.265 | 0.438 | 0.323 | 0.239 | 0.168 | 0.126 | 0.671 | 0.399 | 0.297 | 0.183 | 0.126 | 0.31 | 0.253 | 0.181 | 0.132 | 0.108
5 | EPLC-272H | 0.423 | 0.362 | 0.351 | 0.246 | 0.889 | 0.848 | 0.879 | 0.299 | 0.204 | 0.951 | 0.831 | 1.27 | 0.365 | 0.334 | 0.265 | 0.291 | 0.277 | 0.154 | 0.197
6 | NCI-H1666 | 0.895 | 0.917 | 0.893 | 0.789 | 0.855 | 0.694 | 0.741 | 0.441 | 0.321 | 0.624 | 0.564 | 0.566 | 0.282 | 0.264 | 0.562 | 0.535 | 0.471 | 0.405 | 0.346
7 | HCC-44 | 0.612 | 0.621 | 0.679 | 0.633 | 0.861 | 0.758 | 0.698 | 0.373 | 0.269 | 1 | 0.88 | 0.7 | 0.258 | 0.311 | 0.898 | 0.581 | 0.553 | 0.309 | 0.221
8 | RERF-LC-KJ | 0.46 | 0.477 | 0.461 | 0.412 | 1.06 | 1.21 | 0.998 | 0.643 | 0.417 | 0.775 | 0.794 | 0.816 | 0.476 | 0.321 | 0.417 | 0.4 | 0.349 | 0.215 | 0.198
9 | LU99A | 0.176 | 0.218 | 0.178 | 0.189 | 1.02 | 1.26 | 1 | 0.801 | 0.784 | 0.957 | 1.04 | 0.863 | 0.617 | 0.592 | 0.281 | 0.294 | 0.292 | 0.239 | 0.228
10 | PC-3 [JPC-3] | 1.17 | 1.42 | 0.936 | 0.495 | 0.853 | 0.814 | 0.824 | 0.409 | 0.508 | 0.448 | 0.451 | 0.397 | 0.348 | 0.302 | 0.898 | 0.786 | 0.685 | 0.59 | 0.326
11 | NCI-H2126 | 0.736 | 0.693 | 0.693 | 0.624 | 1.13 | 1.11 | 1.1 | 0.885 | 0.809 | 0.794 | 0.78 | 0.759 | 0.421 | 0.385 | 0.812 | 0.758 | 0.614 | 0.38 | 0.262
12 | LXF-289 | 0.875 | 1 | 0.808 | 0.9 | 1.01 | 0.986 | 0.96 | 0.725 | 0.646 | 0.884 | 0.916 | 0.841 | 0.647 | 0.481 | 0.203 | 0.172 | 0.204 | 0.17 | 0.145
13 | BEN | 0.806 | 0.811 | 0.712 | 0.615 | 0.96 | 0.797 | 0.741 | 0.577 | 0.247 | 0.894 | 0.743 | 0.562 | 0.373 | 0.219 | 0.476 | 0.478 | 0.443 | 0.356 | 0.401
14 | SW 1573 | 0.896 | 0.799 | 0.77 | 0.671 | 1.06 | 1.14 | 1.19 | 0.836 | 0.787 | 1.42 | 1.23 | 1.19 | 1.29 | 0.949 | 0.237 | 0.186 | 0.242 | 0.179 | 0.164
15 | NCI-H1993 | 0.61 | 0.569 | 0.559 | 0.548 | 1.1 | 1.16 | 1 | 0.723 | 0.543 | 0.749 | 0.911 | 0.867 | 0.728 | 0.69 | 0.615 | 0.605 | 0.519 | 0.542 | 0.487
16 | SK-LU-1 | 1.02 | 0.932 | 1.1 | 0.781 | 1.34 | 1.4 | 0.988 | 0.537 | 0.305 | 0.825 | 0.775 | 0.55 | 0.573 | 0.516 | 0.335 | 0.337 | 0.278 | 0.182 | 0.169
17 | NCI-H460 | 0.0693 | 0.062 | 0.0616 | 0.0609 | 1.09 | 1.05 | 0.85 | 0.0581 | 0.0179 | 1 | 0.761 | 0.462 | 0.0242 | 0.0172 | 0.395 | 0.0956 | 0.0498 | 0.0451 | 0.0275
